Test results reported in patent US12440433B2, “Brightening cosmetic composition comprising sodium pyruvate as active ingredient” (LG HOUSEHOLD & HEALTH CARE LTD., priority 2020, dated 2025).

Test system: B16F10 cells
Experiment: Melanogenesis inhibitory efficiency test (melanin amount in α-MSH-stimulated B16F10 cells)
Assay type: cell-based
Conditions: for Melanin amount (%) / Melanogenesis inhibitory efficiency (symbol): 10 nM α-MSH; for Melanin amount (%) / Melanogenesis inhibitory efficiency / Melanogenesis inhibitory efficiency (symbol): 48 hours; for Melanin amount (%): absorbance at 405 nm, ingredient concentrations (wt %) per Table 1; for Melanogenesis inhibitory efficiency: (Melanin amount upon no treatment − upon treatment)/(upon no treatment) × 100, 10 nM α-MSH; for melanogenesis inhibitory effect (in words): urea or hydroxyethyl urea used alone; for Melanogenesis inhibitory efficiency (symbol): symbol for no effect
Method: In order to confirm melanogenesis inhibitory efficacy caused by sodium pyruvate, first, B16F10 cells were dispensed into a 6-well plate at 1×10^5 cells/well and cultured in a DMEM medium containing 10% FBS and 1% penicillin/streptomycin under conditions of 37° C. and 5% CO2 for 24 hours. […] The resulting cells were harvested, added to 100 μl of a lysis buffer (1N NaOH, 10% DMSO), and then allowed to react at 90° C. for 20 minutes, and melanin amounts were measured at 405 nm (EPOCH, Biotek). The melanin amount measurement results are as follows.

**Q.** How did the “Melanin amount (%)” value turn out when `CC(=O)C(=O)[O-].[Na+]` [compound 8, sodium pyruvate] was run?
**A.** 92%

**Q.** And the Melanogenesis inhibitory efficiency?
**A.** 8%

**Q.** For `NC(=O)NCCO` [compound 2, hydroxyethyl urea], which “melanogenesis inhibitory effect (in words)” value is on record?
**A.** a melanogenesis inhibitory effect was not shown

**Q.** `CC(=O)C(=O)[O-].[Na+]` [compound 9, sodium pyruvate] was tested. Which “Melanin amount (%)” value did it give?
**A.** 82%

**Q.** What about the Melanogenesis inhibitory efficiency of the same molecule?
**A.** 18%

**Q.** For `NC(N)=O` [compound 4, urea], which “Melanin amount (%)” value is on record?
**A.** 100%

**Q.** What about the “Melanogenesis inhibitory efficiency (symbol)” value of the same molecule?
**A.** *** (100 or more has no effect)

**Q.** What about the “melanogenesis inhibitory effect (in words)” value of the same molecule?
**A.** a melanogenesis inhibitory effect was not shown

**Q.** How did the “Melanin amount (%)” value turn out when `CC(=O)C(=O)[O-].[Na+]` [compound 10, sodium pyruvate] was run?
**A.** 77%

**Q.** And the Melanogenesis inhibitory efficiency?
**A.** 23%

**Q.** `NC(=O)NCCO` [compound 3, hydroxyethyl urea] was tested. Which “Melanin amount (%)” value did it give?
**A.** 100%

**Q.** And the “Melanogenesis inhibitory efficiency (symbol)” value?
**A.** *** (100 or more has no effect)

**Q.** `CC(=O)C(=O)[O-].[Na+]` [Comparative Example 11, sodium pyruvate] was tested. Which “Melanin amount (%)” value did it give?
**A.** 64%

**Q.** What about the Melanogenesis inhibitory efficiency of the same molecule?
**A.** 36%
